In patent US10428013B2, “Amide compound, preparation method and uses thereof” (Shanghai Institute of Phamaceutical Industry, priority 2011, dated 2019):

What was measured:
[1] = test system: Hyperlipemia Model of SD Rat; experiment: Screening in the hyperlipemia model of SD rat (fat emulsion by gavage; serum lipids); assay type: in vivo; details: hyperlipemia SD rats, 40 mg/kg, dosed 21 days, X ± SD
Procedure: Materials and Methods for Screening with the Compounds Prepared in Experiment 1 to 21 in the Hyperlipemia Model of SD Rat
SD rats, male, 150-180 g, supplied by Shanghai Slaccas Laboratory Animal Company Limited.
Preparation of fat emulsion: 500 g lard oil was weighed and placed into a vessel, heated for melting, and upon heating up to the temperature of 100° C., 200 g cholesterol was added and fully dissolved, then 20 g propylthiouracil was added. After full stirring and dissolving, 500 ml Tween 80 was added to give an oil phase. Meanwhile, 600 ml distilled water and 400 ml 1,2-propylene glycol were heated to 60° C. in water bath, and then 40 g sodium deoxycholate was added with stirring, until full dissolution, to give an aqueous phase. The aqueous phase was added into the oil phase and fully and uniformly mixed, to prepare the fat emulsion.
Formulation of the solution for the compounds: an appropriate amount of compounds was triturated with appropriate amount of Tween 80 for homogeneous dispersion, and then sufficient CMC-Na solution was added and fully triturated, suspended to give the solution for the compounds.
The animals were fed for acclimation for 3 days, with 8 animals as blank control (Control) according to weight, and the rest was subject to intragastric administration of fat emulsion at 1 ml/100 g weight at A.M. 9:00-11:00 daily for continuous 2 weeks; the animals were fasted for 12 hours, and had 1 ml blood sampled at orbital cavity, which was measured with the Hitachi Automatic Biochemical Analyzer 7080 for serum cholesterol (CHO), triglyceride (TO), low-density lipoprotein (LDL-C) and high-density lipoprotein (HDL-C), with the animals having CHO of 4-7 mmol/L for experiment.
The animals dosed with fat emulsion for 2 weeks were divided into model group (Model), simvastatin group (Sim, 10 mg/kg) and compound group (40 mg/kg) according to weight, and continued to receive intragastric administration with fat emulsion; at the same time, the dosed group was administered with respective amount of drug, and the model group was administered with equal volume of solvent. Fat emulsion was dosed by gavage at A.M., and drug was dosed at P.M. The animals were weighed at Monday, and were observed. The animals were dosed for continuous 21 days, and fasted for 12 hours, with 1 ml blood sampling at orbital cavity. The liver was exposed and observed for pathologic condition; after slicing and weighing, it was fixed into the 4% formaldehyde solution for pathologic examination.
The Hitachi Automatic Biochemical Analyzer 7080 was used to measure serum cholesterol (CHO), triglyceride (TG), low-density lipoprotein (LDL-C) and high-density lipoprotein (HDL-C).
Laboratory data were expressed as X±SD (Standard Deviation), and comparison between groups was carried out by t-testing.

[2] = test system: Cholelithiasis Model of Golden Hamster; experiment: Screening in the cholelithiasis model of golden hamster (biochemical measurement of bile); assay type: in vivo, golden hamsters; details: dosed 45 days, X ± SD
Procedure: Screening with the Compounds Prepared in Experiment 1 to 21 in the Cholelithiasis Model of Golden Hamster
68 male golden hamsters, 50-60 g, supplied by Shanghai Slaccas Laboratory Animal Company Limited.
The animals were fed for acclimation for 3 days, with 8 animals as blank control (Control) according to weight. The control was dosed with normal rat feedstuff, and the rest was dosed with feedstuff leading to cholelithiasis (sucrose 32.1%, cheese 64.2%, cholesterol 0.2%, salt 3%, vitamin B1 […], concentrated fish liver oil 0.4%). The animals were fed for acclimation for another 7 days, and divided into model group (Model), simvastatin group (Sim, 10 mg/kg), Ursodesoxycholic acid group (UDCA, 40 mg/kg), and compound group, n=6/group.
[…] 2:00-3:00 daily. The animals were weighed at Monday, and observed for hair color, stool, and variation of activation level.
The animals were dosed for continuous 45 days and then fasted for 12 hours; were anesthetized with 30 mg/kg sodium secobarbital via intraperitoneal injection; had 1 ml blood sampled via abdominal aorta; had gallbladder exposed, with an orifice on the gallbladder being clamped by the ophthalmological pliers and bile in the gallbladder being sucked with 1 ml syringe.
The Hitachi Automatic Biochemical Analyzer 7080 was used to measure cholesterol (CHO), total total bilirubin (TBIL), total bile acid (TBA) and total protein (TP) in bile.
Laboratory data was expressed as X±SD, and comparison of measurement data between groups was carried out by t-testing, with non-parametric testing for enumeration data.

Structure (SMILES)	CHO1 Concentration (serum cholesterol) [1]	HDL-C Concentration (serum high-density lipoprotein) [1]	LDL-C Concentration (serum low-density lipoprotein) [1]	TG Concentration (serum triglyceride) [1]	Cholesterol (CHO) in bile ([2]; 80 mg/kg)	Total bile acid (TBA) in bile ([2]; 80 mg/kg)	Total protein (TP) in bile ([2]; 80 mg/kg)	Total total bilirubin (TBIL) in bile ([2]; 80 mg/kg)	Cholesterol (CHO) in bile ([2]; 40 mg/kg)	Total bile acid (TBA) in bile ([2]; 40 mg/kg)	Total protein (TP) in bile ([2]; 40 mg/kg)	Total total bilirubin (TBIL) in bile ([2]; 40 mg/kg)
CC(C)(Oc1ccc(CCNC(=O)c2ccc(Cl)cc2)cc1)C(=O)NCC(=O)c1ccc(O)cc1 [Compound 01]	14.84 ± 1.06 mmol/L	1.56 ± 0.25 mmol/L	13.90 ± 1.23 mmol/L	0.66 ± 0.13 mmol/L								
CC(C)(Oc1ccc(CCNC(=O)c2ccc(Cl)cc2)cc1)C(=O)NCC(=O)c1ccc(OC(=O)C(C)(C)Oc2ccc(CCNC(=O)c3ccc(Cl)cc3)cc2)cc1 [Compound 02]	17.29 ± 3.23 mmol/L	1.68 ± 0.38 mmol/L	16.01 ± 2.99 mmol/L	0.68 ± 0.18 mmol/L								
CC(C)(Oc1ccc(C(=O)c2ccc(Cl)cc2)cc1)C(=O)NCC(=O)c1ccc(O)cc1 [Compound 03]	12.63 ± 2.77 mmol/L	1.54 ± 0.20 mmol/L	11.11 ± 2.45 mmol/L	0.99 ± 0.18 mmol/L								
CC(C)(Oc1ccc(C(=O)c2ccc(Cl)cc2)cc1)C(=O)NCC(=O)c1ccc(OC(=O)C(C)(C)Oc2ccc(C(=O)c3ccc(Cl)cc3)cc2)cc1 [Compound 04]	10.02 ± 1.80 mmol/L	1.82 ± 0.19 mmol/L	9.84 ± 1.37 mmol/L	1.15 ± 0.12 mmol/L								
Cc1ccc(C)c(OCCCC(C)(C)C(=O)NCC(=O)c2ccc(O)cc2)c1 [Compound 05]	15.30 ± 2.45 mmol/L	1.54 ± 0.24 mmol/L	14.38 ± 2.12 mmol/L	1.31 ± 0.15 mmol/L								
Cc1ccc(C)c(OCCCC(C)(C)C(=O)NCC(=O)c2ccc(OC(=O)C(C)(C)CCCOc3cc(C)ccc3C)cc2)c1 [Compound 06]	16.37 ± 2.26 mmol/L	1.49 ± 0.29 mmol/L	15.78 ± 2.00 mmol/L	1.53 ± 0.16 mmol/L								
CC(C)(Oc1ccc(C2CC2(Cl)Cl)cc1)C(=O)NCC(=O)c1ccc(O)cc1 (stereo not shown) [Compound 07]	14.99 ± 1.45 mmol/L	1.74 ± 0.46 mmol/L	13.90 ± 1.21 mmol/L	1.39 ± 0.16 mmol/L								
CC(C)(Oc1ccc(C2CC2(Cl)Cl)cc1)C(=O)NCC(=O)c1ccc(OC(=O)C(C)(C)Oc2ccc(C3CC3(Cl)Cl)cc2)cc1 (stereo not shown) [Compound 08]	12.92 ± 2.10 mmol/L	2.12 ± 0.27 mmol/L	11.41 ± 1.90 mmol/L	0.83 ± 0.13 mmol/L								
CC(C)(Oc1ccc(Cl)cc1)C(=O)NCC(=O)c1ccc(O)cc1 [Compound 09]	13.64 ± 2.14 mmol/L	2.18 ± 0.22 mmol/L	11.64 ± 2.00 mmol/L	0.95 ± 0.14 mmol/L								
CC(C)(Oc1ccc(Cl)cc1)C(=O)NCC(=O)c1ccc(OC(=O)C(C)(C)Oc2ccc(Cl)cc2)cc1 [Compound 10]	9.73 ± 1.79 mmol/L	2.66 ± 0.24 mmol/L	8.27 ± 1.46 mmol/L	0.94 ± 0.15 mmol/L								
CCC(C)(Oc1ccc(C2(c3ccc(OC(C)(CC)C(=O)NCC(=O)c4ccc(O)cc4)cc3)CCCCC2)cc1)C(=O)O (stereo not shown) [Compound 11]	12.18 ± 3.12 mmol/L	1.79 ± 0.34 mmol/L	11.37 ± 3.66 mmol/L	1.13 ± 0.14 mmol/L	0.82 ± 0.58 mmol/L	17.46 ± 7.77 mmol/L	28.66 ± 8.48 g/L	48.9 ± 22.10 µmol/L				
CCC(C)(Oc1ccc(C2(c3ccc(OC(C)(CC)C(=O)NCC(=O)c4ccc(O)cc4)cc3)CCCCC2)cc1)C(=O)NCC(=O)c1ccc(O)cc1 (stereo not shown) [Compound 12]	20.17 ± 1.27 mmol/L	1.895 ± 0.39 mmol/L	19.31 ± 1.52 mmol/L	0.75 ± 0.25 mmol/L								
CCC(CC)(CCCOc1cc(C)cc(C)c1)C(=O)NCC(=O)c1cccc(O)c1 [Compound 13]	20.17 ± 1.27 mmol/L	1.895 ± 0.39 mmol/L	19.31 ± 1.52 mmol/L	0.75 ± 0.25 mmol/L								
COc1ccc(OCCCC(C)(C)C(=O)NCC(=O)c2ccc(O)c(C)c2)cc1C [Compound 14]	20.66 ± 3.23 mmol/L	2.25 ± 0.22 mmol/L	20.78 ± 3.46 mmol/L	0.99 ± 0.28 mmol/L								
Cc1cc(C(=O)CCNC(=O)C(C)(CCCOc2cc(Cl)ccc2C)C(C)C)ccc1O (stereo not shown) [Compound 15]	15.00 ± 2.75 mmol/L	1.89 ± 0.26 mmol/L	14.04 ± 3.12 mmol/L	1.34 ± 0.48 mmol/L								
CCC(CCCOc1cc(C)ccc1C)C(=O)N(C)CC(=O)c1cc(C)cc(O)c1 (stereo not shown) [Compound 16]	9.48 ± 1.27 mmol/L	1.32 ± 0.39 mmol/L	7.13 ± 1.52 mmol/L	0.78 ± 0.25 mmol/L					0.97 ± 0.62 mmol/L	19.74 ± 12.14 mmol/L	40.70 ± 26.17 g/L	55.0 ± 29.38 µmol/L
Cc1ccc(C)c(OCCCC(C)(C)C(=O)NCC(=N)c2ccc(O)c(Cl)c2)c1 [Compound 17]	10.54 ± 3.23 mmol/L	1.82 ± 0.22 mmol/L	8.13 ± 3.46 mmol/L	0.88 ± 0.28 mmol/L								
Cc1ccc(C)c(OCCCC(C)(C)C(=O)NC2CCC(C(=S)c3ccc(O)cc3)CC2)c1 (stereo not shown) [Compound 18]	15.04 ± 2.73 mmol/L	1.56 ± 0.51 mmol/L	13.47 ± 3.68 mmol/L	1.25 ± 0.33 mmol/L								
Cc1ccc(C)c(OCCCC(C)(C)C(=O)NCC(=O)c2cc(O)cc(O)c2)c1 [Compound 19]	11.12 ± 1.01 mmol/L	1.36 ± 0.66 mmol/L	10.76 ± 1.25 mmol/L	0.94 ± 0.06 mmol/L								
C[C@H](CCC(=O)O)[C@H]1CC[C@H]2[C@@H]3[C@@H](O)C[C@@H]4C[C@H](O)CC[C@]4(C)[C@H]3CC[C@]12C [Ursodesoxycholic acid, reference compound]									0.98 ± 0.47 mmol/L	12.23 ± 3.04 mmol/L	28.63 ± 10.37 g/L	89.4 ± 45.3 µmol/L
